Data published in patent US9402831B2, “Combination therapy of HSP90 inhibitors with BRAF inhibitors” (Synta Pharmaceuticals Corp., priority 2011, dated 2016).
One block for each molecule: values may come before it.

Key:
[1] = tested on: RPMI-7951 melanoma cells; assay: Western blotting, RPMI-7951 cells; type: cell-based, human; conditions: western blot, FIG. 5
Description: (§1) Human melanoma cell lines carrying the V600E BRAF mutation (A375, SK-MEL-28, RPMI-7951) and human prostate cancer cells (LNCaP, 22Rv1) were purchased from the American Type Culture Collection (Manassas, Va.) and grown following ATCC recommendations, in the presence of fetal bovine serum (10%), 2 mM L-glutamine and antibiotics (100 IU/ml penicillin and 100 μg/ml streptomycin) purchased from Sigma Aldrich. Cells were maintained at 37° C., 5% CO2 atmosphere.
(§2) Cells, treated with compound for 24 hr, were lysed in RIPA buffer (CST, Danvers, Mass., USA) on ice and clarified by centrifugation. Equal amounts of proteins were resolved by SDS-PAGE and immunoblotted with indicated antibodies. The antigen-antibody complex was visualized and quantitated using an Odyssey system (LI-COR, Lincoln, Nebr., USA).

[2] = tested on: K5; assay: Cell viability assay (Cell Titer-Glo), K5; type: cell-based; conditions: Homo sapiens; K5, carcinoma, BRAF V600E; read-out: Ganetespib IC50
Description: (§3) Cell viability was measured using the Cell Titer-Glo assay (Promega). In brief, cells were plated in 96-well plates in triplicate at optimal seeding density (determined empirically for each cell line) and incubated at 37° C., 5% CO2 atmosphere for 24 hr prior to the addition of drug or vehicle (0.3% DMSO) to the culture medium. At the end of the assay, Cell Titer-Glow was added to the wells per manufactures recommendation, shaken for two minutes and incubated for 10 minutes at room temperature. Luminescence (0.1 sec) was measured with a Victor II microplate reader (Perkin Elmer) and the resulting data were used to calculate cell viability, normalized to vehicle control.

[3] = tested on: SK-HEP-1; assay: Cell viability assay (Cell Titer-Glo), SK-HEP-1; type: cell-based; conditions: Homo sapiens, SK-HEP1; SK-HEP-1, carcinoma, BRAF V600E; read-out: Ganetespib IC50
Description: as §3

[4] = tested on: ACN; assay: Cell viability assay (Cell Titer-Glo), ACN; type: cell-based; conditions: Homo sapiens, neuroblastoma, BRAF V600E, read-out: Ganetespib IC50
Description: as §3

[5] = tested on: SW982; assay: Cell viability assay (Cell Titer-Glo), SW982; type: cell-based; conditions: Homo sapiens; SW982, synovial sarcoma, BRAF V600E; read-out: Ganetespib IC50
Description: as §3

[6] = tested on: HT-144; assay: Cell viability assay (Cell Titer-Glo), HT-144; type: cell-based; conditions: Homo sapiens; HT-144, malignant melanoma, BRAF V600E; read-out: Ganetespib IC50
Description: as §3

[7] = tested on: human cancer cells harboring the V600E mutation in BRAF; assay: Cell viability, panel of BRAF mutant cancer cell lines; type: cell-based; conditions: large panel of human cancer cells harboring BRAF V600E; read-out: IC50 across panel
Description: as §3

[8] = tested on: MZ7-mel; assay: Cell viability assay (Cell Titer-Glo), MZ7-mel; type: cell-based; conditions: Homo sapiens, malignant melanoma, BRAF V600E, read-out: Ganetespib IC50
Description: as §3

[9] = tested on: UACC-257; assay: Cell viability assay (Cell Titer-Glo), UACC-257; type: cell-based; conditions: Homo sapiens; UACC-257, malignant melanoma, BRAF V600E; read-out: Ganetespib IC50
Description: as §3

[10] = tested on: COLO-829; assay: Cell viability assay (Cell Titer-Glo), COLO-829; type: cell-based; conditions: Homo sapiens; COLO-829, malignant melanoma, BRAF V600E; read-out: Ganetespib IC50
Description: as §3

[11] = tested on: RKO; assay: Cell viability assay (Cell Titer-Glo), RKO; type: cell-based; conditions: Homo sapiens, carcinoma, BRAF V600E, read-out: Ganetespib IC50
Description: as §3

[12] = tested on: IST-MEL1; assay: Cell viability assay (Cell Titer-Glo), IST-MEL1; type: cell-based; conditions: Homo sapiens; IST-MEL1, malignant melanoma, BRAF V600E; read-out: Ganetespib IC50
Description: as §3

[13] = tested on: A375; assay: Cell viability assay (Cell Titer-Glo), A375; type: cell-based; conditions: Homo sapiens, A-375; A375, malignant melanoma, BRAF V600E; read-out: Ganetespib IC50
Description: as §1, §3

[14] = tested on: HTC-C3; assay: Cell viability assay (Cell Titer-Glo), HTC-C3; type: cell-based; conditions: Homo sapiens; HTC-C3, carcinoma, BRAF V600E; read-out: Ganetespib IC50
Description: as §3

[15] = tested on: SK-MEL-28 melanoma cells; assay: Western blotting, SK-MEL-28 cells; type: cell-based, human; conditions: SK-MEL-28, 24 hr, western blot, FIG. 1
Description: as §1, §2

[16] = tested on: A101D; assay: Cell viability assay (Cell Titer-Glo), A101D; type: cell-based; conditions: Homo sapiens, malignant melanoma, BRAF V600E, read-out: Ganetespib IC50
Description: as §3

[17] = tested on: A375 melanoma cells; assay: Western blotting, A375 cells; type: cell-based, human; conditions: A375, 24 hr, western blot
Description: as §1, §2

[18] = tested on: SH-4; assay: Cell viability assay (Cell Titer-Glo), SH-4; type: cell-based; conditions: Homo sapiens; SH-4, malignant melanoma, BRAF V600E; read-out: Ganetespib IC50
Description: as §3

[19] = tested on: LS-411N; assay: Cell viability assay (Cell Titer-Glo), LS-411N; type: cell-based; conditions: Homo sapiens, carcinoma, BRAF V600E, read-out: Ganetespib IC50
Description: as §3

[20] = tested on: MMAC-SF; assay: Cell viability assay (Cell Titer-Glo), MMAC-SF; type: cell-based; conditions: Homo sapiens, malignant melanoma, BRAF V600E, read-out: Ganetespib IC50
Description: as §3

[21] = tested on: DBTRG-05MG; assay: Cell viability assay (Cell Titer-Glo), DBTRG-05MG; type: cell-based; conditions: Homo sapiens, glioma, BRAF V600E, read-out: Ganetespib IC50
Description: as §3

[22] = tested on: RVH-421; assay: Cell viability assay (Cell Titer-Glo), RVH-421; type: cell-based; conditions: Homo sapiens; RVH-421, malignant melanoma, BRAF V600E; read-out: Ganetespib IC50
Description: as §3

[23] = tested on: SW872; assay: Cell viability assay (Cell Titer-Glo), SW872; type: cell-based; conditions: Homo sapiens; SW872, liposarcoma, BRAF V600E; read-out: Ganetespib IC50
Description: as §3

[24] = tested on: SK-MEL-5; assay: Cell viability assay (Cell Titer-Glo), SK-MEL-5; type: cell-based; conditions: Homo sapiens; SK-MEL-5, malignant melanoma, BRAF V600E; read-out: Ganetespib IC50
Description: as §3

[25] = tested on: RPMI-7951 melanoma cells; assay: Cell viability assay, RPMI-7951 melanoma cells; type: cell-based; conditions: Homo sapiens; RPMI-7951 cells; read-out: IC90 cell killing
Description: as §1, §3

[26] = tested on: B-raf V600E in melanoma cell line A375; conditions: cited from earlier work
[27] = tested on: B-raf mutants in COS cells; conditions: cited from earlier work

SMILES: Cn1cnc2c(F)c(Nc3ccc(Br)cc3Cl)c(C(=O)NOCCO)cc21 [AZD6244, reference compound]
suppression of ERK phosphorylation ([1]; RPMI-7951 (overexpress COT), 24 hr): neither the MEK inhibitor AZD6244 nor the BRAF inhibitor PLX-4032 were capable of suppressing ERK phosphorylation

IC50 [3]: 9 nM
IC50 [5]: 10 nM
IC50 [6]: 6 nM
IC50 [7]: 4 to 40 nM
IC50 [10]: 5 nM
IC50 [13]: 20 nM
IC50 [23]: 22 nM
IC50 [24]: 18 nM
SMILES: CC(C)c1cc(-c2nnc(O)n2-c2ccc3c(ccn3C)c2)c(O)cc1O [Ganetespib, 3-(2,4-DIHYDROXY-5- ISOPROPYL-PHENYL)-4-(1- METHYL-INDOL-5-YL)-5- HYDROXY-[1,2,4]TRIAZOLE]
IC50 [2]: 11 nM
IC50 [4]: 4 nM
AKT activity ([1]; RPMI-7951, 24 hr): effectively inhibited
MEK and ERK activity ([1]; RPMI-7951, 24 hr): effectively inhibited
IC50 [8]: 26 nM
IC50 [9]: 24 nM
IC50 [11]: 4 nM
IC50 [12]: 4 nM
IC50 [14]: 21 nM
MEK and ERK activity [15]: loss of MEK and ERK activity
destabilizing mutant BRAF [15]: fully capable of destabilizing mutant BRAF
IC50 [16]: 9 nM
MEK and ERK activity ([17]; FIG. 1): loss of MEK and ERK activity
destabilizing mutant BRAF ([17]; FIG. 1): fully capable of destabilizing mutant BRAF
Cdc2 stability ([17]; FIG. 2): destabilized Cdc2
PI3K and mTOR-mediated phosphorylation of AKT and 4EBP1 ([17]; FIG. 2): suppressed
apoptosis as determined by PARP cleavage ([17]; FIG. 2): resulting in apoptosis
destabilization of BRAF dimerization partner CRAF ([17]; FIG. 3): able to destabilize
potency in deactivating/dephosphorylating ERK versus PLX-4032 or AZD6244 ([17]; FIG. 3): greater potency
IC50 [18]: 12 nM
IC50 [19]: 5 nM
IC50 [20]: 31 nM
IC50 [21]: 14 nM
IC50 [22]: 26 nM
IC90 [25]: 10 nM

SMILES: C=CCNC1=C2C[C@@H](C)C[C@H](OC)[C@H](O)[C@@H](C)/C=C(\C)[C@H](OC(N)=O)[C@@H](OC)/C=C\C=C(/C)C(=O)NC(=CC1=O)C2=O [Compound 17AAG]
B-raf degradation rate versus wild type B-raf CHL cells [26]: degraded more rapidly
degradation of B-raf mutants E586K and L597V ([27]; cells treated with 17AAG): not sensitive to degradation
degradation of B-raf mutants V600D, G469A, G469E, G596R, G466V, G594V ([27]; transvected into COS cells, versus wild type B-raf): degraded more rapidly than wild type B-raf
